Experimental data reported in patent publication US3937801A, “Reducing the incidence of gastrointestinal side effects during the treatment of inflammatory conditions with antiinflammatory drugs” (priority 1973, dated 1976).
Several values for one entry are separate records, joined by “and”; a condition that tells them apart may be missing. Identical values can stand only once. Like-named read-outs stand apart in the source and are kept apart here.

Columns and labels:
[1] = test system: indomethacin-induced ulcers; test: indomethacin-induced ulcer formation in rats (procedure of Lee et al.); assay type: in vivo, rat; details: for ED50: po; for Relative Potency ± S.E.M.: relative to 2-(3-hydroxy-3-methyloctyl)-5-oxocyclopentaneheptanoic acid, procedure of Example 1
From the text: The gastrointestinal side effect inhibiting property of the compositions of the present invention are demonstrable in standard pharmacological tests. For example, in procedures similar to the in vivo test described by Y. H. Lee et al., cited above, for evaluating the effects of a test compound on indomethacin-induced ulcers in the rat, the compounds of formula 1 are shown to be effective, see Examples 1 and 2.
By following the procedure of Lee et al., cited above, for the production of the indomethacin-induced ulcer in rats, the property of the compounds of formula 1 to inhibit such ulcers is readily demonstrable. More specifically: male albino rats (170 - 190 g; Sprague-Dawley strain, Canadian Breeding Laboratories), caged individually, were fasted 24 hr with free access to water until the start of the experiment. Indomethacin was given intraperitoneally. The animals were killed 5 hr later and the ulcer formation in the glandular portion of the stomach determined. The compound of formula 1 was administered perorally immediately after the indomethacin. The percent inhibition of ulcer formation versus the semilogarithm of the dose (mg/kg) was plotted and the dose at which 50% inhibition occurred (ED50) was read from the graph.
Analysis of variance and regression study were used in the evaluation of the data.
Indomethacin was administered (0.5 ml) as an aqueous suspension (2 drops of polysorbate 80 per 14 ml of H2 O). Polysorbate 80 is a mixture of sorbitol and its anhydrides copolymerized with ethylene oxide. The compounds of formula 1 were given (0.2 ml) in a 0.2% sodium carboxymethyl cellulose aqueous suspension.
The results of such a test for 2-(3-hydroxy-3-methyloctyl)-5-oxocyclopentaneheptanoic acid to inhibit the ulcer formation induced by 20 mg/kg i.p. of indomethacin are given in the following table. For comparative purposes the results obtained for propantheline bromide are also included.
By following the procedure of Example 1 the effects of compounds of formula 1 other than 2-(3-hydroxy-3-methyloctyl)-5-oxocyclopentaneheptanoic acid on indomethacin-induced ulcers are demonstrable. Accordingly, the results obtained with such other compounds of formula 1 are exemplified by the following list in which the relative potency of each compound with respect to 2-(3-hydroxy-3-methyloctyl)-5-oxocyclopentaneheptanoic acid is noted.

gastric acid secretion [2] = test: inhibition of gastric acid secretion in the rat (method of Lippmann); assay type: in vivo; details: unit inferred, read-out: Ed50 for inhibiting gastric acid secretion
Method: A comparison of the ED50 for inhibiting indomethacin-induced ulcers and the ED50 for inhibiting gastric acid secretion for compounds of formula 1 is exemplified in the following list. Both ED50 's are determined in the rat. The ED50 for inhibiting indomethacin-induced ulcers is obtained according to the method of Example 1. The ED50 for inhibiting gastric acid secretion is obtained according to the method of Lippmann, cited above.

diarrhea = diarrhea in female mice or rats, peroral; assay type: in vivo, mouse; details: 60 minutes; for diarrheal effect: female mice, 240 mg/kg peroral
[3] = test system: phenylbutazone-induced ulcers; test: phenylbutazone-induced ulcer formation in rats; assay type: in vivo, rat; details: for % Inhibition of ulcer formation / Ulcers Formed, Mean ± S.E.M.: phenylbutazone 300 mg/kg p.o., 18 hr
[4] = cited from earlier work; for stability: natural prostaglandins, T.O. Oesterling et al.
[5] = test system: indomethacin-induced ulcers; details: cited from earlier work
ulcers = details: man; N.O. Rothermich 1966; cited from earlier work
gastric acid secretion [6] = details: W. Lippmann 1971; cited from earlier work
diarrheal effect = details: larger doses; Misiewicz et al. 1969; cited from earlier work
[7] = 5 h, rat, method of Example 1 (dose in mg/kg there), unit inferred, read-out: ED50 for inhibiting indomethacin-induced ulcer
[8] = Rattus norvegicus, indomethacin 20 mg/kg i.p., 5 hr, read-out: ED50 (dose at which 50% inhibition of ulcer formation occurred)

For `CCCCC(C)(C)C(O)C=C[C@@H]1CCC(=O)[C@H]1C/C=C\CCCC(=O)O` (relative stereo) [trans,cis-7-[2-(3-Hydroxy-4,4-dimethyl-1-octenyl)-5-oxocyclopentyl]-5-heptenoic acid], which ED50 [1, 7] is on record?
Its ED50 is roughly 0.02 mg/kg.

What about the “Relative Potency ± S.E.M.” value [1] of the same compound?
The value was 4.8.

And the ED50 (gastric acid secretion [2])?
Its ED50 is roughly 1 mg/kg.

Which “Relative Potency ± S.E.M.” value [1] does the source give for `CCCCCC(O)C=C[C@@H]1CCC(=O)[C@H]1CCCCCCC(=O)O` (relative stereo) [trans-2-(3-Hydroxy-1-octenyl)-5-oxocyclopentaneheptanoic acid] here?
Its value is 0.74 ± 0.20.

Which “Relative Potency ± S.E.M.” value [1] does the source give for `CCCCCC(C)(O)C=C[C@@H]1CCC(=O)[C@H]1CCCCCCC(=O)O` (relative stereo) [trans-2-(3-Hydroxy-3-methyl-1-octenyl)-5-oxocyclopentaneheptanoic acid] here?
The value was 1.07 ± 0.33.

Which “Relative Potency ± S.E.M.” value [1] does the source give for `CCCCCC(O)CC[C@@H]1CCC(=O)[C@H]1CCCCCCC(=O)O` (relative stereo) [trans-2-(3-Hydroxyoctyl)-5-oxocyclopentaneheptanoic acid] here?
Its value is 0.45 ± 0.12 and 0.64 ± 0.20.

For `O=C(O)CCCCCC[C@@H]1C(=O)CC[C@H]1C=CC(O)CC1CCCCC1` (relative stereo) [trans-2-(4-Cyclohexyl-3-hydroxy-1-butenyl)-5-oxocyclopentaneheptanoic acid], which “Relative Potency ± S.E.M.” value [1] is on record?
The value was 0.13 ± 0.06.

With `CCCCCC(O)C=C[C@@H]1CCC(=O)[C@H]1C/C=C\CCCC(=O)O` (single isomer, unassigned) [trans,cis-7-[2-(3-Hydroxy-1-octenyl)-5-oxocyclopentyl]-5-hep] [trans,cis-7-[2-(3-Hydroxy-1-octenyl)-5-oxocyclopentyl]-5-heptenoic acid] as the compound, how does the “Relative Potency ± S.E.M.” value [1] read?
The value was 0.37 ± 0.21 and 0.37 ± 0.14.

With `CCCCCC(C)(O)CCC1CCC(=O)C1CCCCCCC(=O)O` (single isomer, unassigned; (+)) [(+)-2-(3-Hydroxy-3-methyloctyl)-5-oxocyclopentaneheptanoic a] [(+)-2-(3-Hydroxy-3-methyloctyl)-5-oxocyclopentaneheptanoic acid] as the compound, how does the “Relative Potency ± S.E.M.” value [1] read?
Its value is 1.02 ± 0.42.

And the diarrheal effect (diarrhea)?
Its diarrheal effect is “do not cause an appreciable diarrheal effect”.

With `CCCCCC(C)(O)CCC1CCC(=O)C1CCCCCCC(=O)O` (single isomer, unassigned; (+)) [(+)-2-(3-Hydroxy-3-methyloctyl)-5-oxocyclopentaneheptanoic acid] as the compound, how does the ED50 [1, 7] read?
The ED50 was 0.11 mg/kg.

What does the source list for `CCCCCC(C)(O)CCC1CCC(=O)C1CCCCCCC(=O)O` (single isomer, unassigned; (-)) [(-)-2-(3-Hydroxy-3-methyloctyl)-5-oxocyclopentaneheptanoic a] [(-)-2-(3-Hydroxy-3-methyloctyl)-5-oxocyclopentaneheptanoic acid]?
ED50 for inhibiting indomethacin-induced ulcer ([1]; rat, method of Example 1 (dose in mg/kg there), unit inferred, 300 min): 0.11 mg/kg; Relative Potency ± S.E.M. [1]: 1.01 ± 0.40; diarrheal effect (diarrhea): do not cause an appreciable diarrheal effect

With `CCCCCC(C)(O)CCC1CCC(=O)C1CCCCCCC(=O)O` (stereo not shown) [2-(3-hydroxy-3-methyloctyl)-5-oxocyclopentaneheptanoic acid] as the compound, how does the “% Inhibition of ulcer formation” value ([1]; 0.075 mg/kg p.o., indomethacin 20 mg/kg i.p., 5 hr) read?
The value was 43%.

What about the “Ulcers Formed, Mean ± S.E.M.” value ([1]; 0.075 mg/kg p.o., indomethacin 20 mg/kg i.p., 5 hr, n=9, P < 0.01) of the same compound?
The value was 5.9 ± 0.8.

And the “% Inhibition of ulcer formation” value ([1]; 0.15 mg/kg p.o., indomethacin 20 mg/kg i.p., 5 hr)?
The value was 56%.

And the “Ulcers Formed, Mean ± S.E.M.” value ([1]; 0.15 mg/kg p.o., indomethacin 20 mg/kg i.p., 5 hr, n=9, P < 0.01)?
Its value is 4.6 ± 0.6.

And the “% Inhibition of ulcer formation” value ([1]; 0.30 mg/kg p.o., indomethacin 20 mg/kg i.p., 5 hr)?
Its value is 69%.

And the “Ulcers Formed, Mean ± S.E.M.” value ([1]; 0.30 mg/kg p.o., indomethacin 20 mg/kg i.p., 5 hr, n=9, P < 0.001)?
Its value is 3.2 ± 0.5.

And the ED50 [1, 8]?
The ED50 was 0.11 mg/kg.

What about the ED50 [1, 7] of the same compound?
The ED50 was 0.11 mg/kg.

What about the ED50 (gastric acid secretion [2]) of the same compound?
Its ED50 is 4.3 mg/kg.

And the diarrheal effect (diarrhea)?
The diarrheal effect was “do not cause an appreciable diarrheal effect”.

And the “% Inhibition of ulcer formation” value ([3]; 7.5 mg/kg p.o.)?
Its value is 24%.

And the “Ulcers Formed, Mean ± S.E.M.” value ([3]; 7.5 mg/kg p.o., n=10)?
Its value is 4.1 ± 1.0.

And the “% Inhibition of ulcer formation” value ([3]; 15 mg/kg p.o.)?
Its value is 48%.

What about the “Ulcers Formed, Mean ± S.E.M.” value ([3]; 15 mg/kg p.o., n=9) of the same compound?
The value was 2.8 ± 0.6.

What about the “% Inhibition of ulcer formation” value ([3]; 30 mg/kg p.o.) of the same compound?
Its value is 78%.

What about the “Ulcers Formed, Mean ± S.E.M.” value ([3]; 30 mg/kg p.o., n=9) of the same compound?
The value was 1.2 ± 0.5.

What about the ED50 ([3]; Rattus norvegicus, po, over an 18 hr period) of the same compound?
The ED50 was roughly 15 mg/kg.

For `CCCCC[C@H](O)/C=C/[C@@H]1[C@@H](CCCCCCC(=O)O)[C@@H](O)C[C@H]1O` [PGF1α], which stability [4] is on record?
Its stability is “relatively unstable”.

Which results are given for `COc1ccc2c(c1)c(CC(=O)O)c(C)n2C(=O)c1ccc(Cl)cc1` [indomethacin]?
correlation between dosage and occurrence of ulcers ([5]; rat, Lee et al.): found a similar correlation in the rat; correlation between dosage and occurrence of ulcers (ulcers): found a correlation between indomethacin dosage and the occurence of ulcers in man

With `CC(C)[N+](C)(CCOC(=O)C1c2ccccc2Oc2ccccc21)C(C)C` [propantheline bromide, reference compound] as the compound, how does the “reduction of the ulcerogenic activity of indomethacin” value ([5]; rats, Lee et al. 1971, dose relative to usual therapeutic dose) read?
Its value is “proved to be effective but only when administered at does much higher than their usual therapeutic dose”.

And the “% Inhibition of ulcer formation” value ([1]; 1.5 mg/kg p.o., indomethacin 20 mg/kg i.p., 5 hr)?
Its value is 36%.

What about the “Ulcers Formed, Mean ± S.E.M.” value ([1]; 1.5 mg/kg p.o., indomethacin 20 mg/kg i.p., 5 hr, n=9, P < 0.05) of the same compound?
Its value is 6.9 ± 0.9.

What about the “% Inhibition of ulcer formation” value ([1]; 3.0 mg/kg p.o., indomethacin 20 mg/kg i.p., 5 hr) of the same compound?
Its value is 52%.

What about the “Ulcers Formed, Mean ± S.E.M.” value ([1]; 3.0 mg/kg p.o., indomethacin 20 mg/kg i.p., 5 hr, n=9, P < 0.01) of the same compound?
Its value is 5.0 ± 1.0.

What about the “% Inhibition of ulcer formation” value ([1]; 6.0 mg/kg p.o., indomethacin 20 mg/kg i.p., 5 hr) of the same compound?
Its value is 61%.

What about the “Ulcers Formed, Mean ± S.E.M.” value ([1]; 6.0 mg/kg p.o., indomethacin 20 mg/kg i.p., 5 hr, n=8, P < 0.01) of the same compound?
Its value is 4.1 ± 0.9.

And the “times less potent than 2-(3-hydroxy-3-methyloctyl)-5-oxocyclopentaneheptanoic acid” value ([1]; ED50 comparison, p.o., indomethacin-induced ulcers)?
Its value is 27 times.

And the ED50 [1, 8]?
Its ED50 is 3 mg/kg.

Which “effect on gastric acid secretion” value (gastric acid secretion [6]) does the source give for `CCCCC[C@H](O)/C=C/[C@H]1[C@H](O)CC(=O)[C@@H]1CCCCCCC(=O)O` [prostaglandin E1] here?
Its value is “inhibit gastric acid secretion”.

What about the diarrheal effect (diarrheal effect) of the same compound?
Its diarrheal effect is “diarrheal effect associated with larger doses”.

With `CCCCC[C@H](O)/C=C/[C@H]1[C@H](O)CC(=O)[C@@H]1C/C=C\CCCC(=O)O` [prostaglandin E2] as the compound, how does the stability [4] read?
Its stability is “relatively unstable”.

What about the “dehydration of the 11-hydroxy group” value ([4]; under both basic and acidic conditions) of the same compound?
The value was “participates readily in dehydration reactions under both basic and acidic conditions”.

What about the “test animals with diarrhea” value (diarrhea; 43 mg/kg peroral) of the same compound?
The value was 50%.

Which “Relative Potency ± S.E.M.” value [1] does the source give for “trans-2-(3-Methyl-3-oxooctyl)-5-oxocyclopentaneheptanoic acid” here?
The value was 0.43 ± 0.14.
